Paper PMC10391610, “Survivin prevents the polycomb repressor complex 2 from methylating histone 3 lysine 27” (iScience, 2023)

Columns and labels:
[1] = system: gene expression in CD4+ cells; experiment: RNA-seq after YM155 treatment; format: cell-based, human
Method: (§1) Human peripheral blood mononuclear cells were isolated from venous peripheral blood by density gradient separation on Lymphoprep (Axis-Shield PoC As, Dundee, Scotland). CD4^+ cells were isolated by positive selection (Invitrogen, 11331D), and cultured (1.25×10^6 cells/ml) in wells coated with anti-CD3 antibody (0.5 mg/ml; OKT3, Sigma-Aldrich, Saint Luis, Missouri, USA), in RPMI medium supplemented with 50 μM β-mercaptoethanol (Gibco, Waltham, Massachusetts, USA), Glutamax 2 mM (Gibco), Gentamicin 50 μg/ml (Sanofi-Aventis, Paris, France) and 10% fetal bovine serum (Sigma-Aldrich) at 37°C in a humidified 5% CO2 atmosphere. Cells were treated with survivin inhibitors serpantronium bromide, YM155[22] (YM155, Selleck Chemicals, Houston, TX), as indicated. The cells were stimulated with recombinant IFNg (50 ng/ml; Peprotech, Cranbury, NJ, USA) during the last 2 h and harversted for RNA-seq. Supernatants were used to measure cytokine levels.
RNA from the CD4^+ cell cultures was prepared using the Norgen Total micro mRNA kit (Norgen, Ontario, Canada). Quality control was done by Bioanalyzer RNA6000 Pico on Agilent2100 (Agilent, Santa Clara, CA, USA). Deep sequencing was done by RNAseq (Hiseq2000, Illumina) at the Science for Life Laboratory, Huddinge, Sweden. Raw sequence data were obtained in Bcl-files and converted into fastq text format using the bcl2fastq program from Illumina.
Mapping of transcripts was done using Genome UCSC annotation set for hg38 human genome assembly. Analysis was performed using the core Bioconductor packages in R-studio v.3.6.3. Differentially expressed genes in CD4^+ cells treated with YM155 were identified using DESeq2 (v.1.26.0) with Benjamini-Hochberg adjustment for multiple testing.
Supplementary file mmc2.xlsx: Table S1. Differentially expressed protein coding genes connected to the changeable H3K27me3 peaks in CD4^+ T cells, related to Figure 1 CD4^+ T cells (n=4) were cultured with survivin inhibitor YM155 (0 and 10 ng/ml). Expression was analyzed by RNA-seq and compared by paired DESeq2 test.

[2] = system: H3K27me3 / H3K27ac peaks in CD4+ T cells; experiment: ChIP-seq of H3K27me3 and H3K27ac after YM155 treatment; format: cell-based, human
Method: as §1
For ChIP-seq analysis, CD4^+ cells isolated from 12 women were stimulated with concanavalin A (ConA, 0.625 μg/ml, Sigma-Aldrich), and lipopolysaccharide (LPS) (5 μg/ml, Sigma-Aldrich) for 72 h and pooled in 4 independent samples for DNA purification. After shearing and pre-clearing of chromatin, 1% of the sample was saved as an input. The pre-cleared chromatin was incubated with 2 μg anti-Survivin (10811, Santa Cruz Biotechnology). For ChIPseq targeting histone modifications CD4^+ cells from 3 healthy women were stimulated with concanavalin A and LPS and treated with sepantronium bromide, YM155, 0 or 10 ng/ml, for 24 h. The chromatin was pre-cleared on the beads coated with Sepharose A and incubated with anti-H3K27ac (C15410196, Diagenode), or anti-H3K27me3 (C15410195, Diagenode). The cells were cross-linked and lysed with the EpiTect ChIP OneDay kit (Qiagen), as recommended by the manufacturer. After sonication to shear the chromatin, cellular debris was removed by pelleting. After pre-clearing, 1% of the sample was saved as an input fraction and used as background for nonspecific chromatin binding. Pre-cleared chromatin was incubated with 2 μg of anti-survivin (10811, Santa Cruz Biotechnology, Santa Cruz, CA, USA). The immune complexes were washed, the cross-links were reversed, and the DNA was purified with the EpiTect ChIP OneDay kit (Qiagen) as recommended by the manufacturer. The quality of purified DNA was assessed with TapeStation (Agilent, Santa Clara, CA, USA). DNA libraries were prepared with ThruPLEX (Rubicon) and sequenced with a Hiseq2000 sequencing system (Illumina) according to the manufacturer’s protocols. Bcl-files were converted and demultiplexed to fastq with bcl2fastq (Illumina).
The fastq sequencing files were mapped to the human reference genome (hg38) using the STAR aligner[58] with default parameters apart from setting the alignIntronMax flag to 1 for end-to-end mapping. Quality control of the sequenced material was performed by FastQC tool using MultiQC v.0.9dev0 (Babraham Institute, Cambridge, U.K.). Peak calling was performed using the default parameters. Peaks were identified for enrichment of the immunoprecipitation fraction against input (adjusted p < 10^−5) and annotated by HOMER software[59] in standard mode to closest transcription start site (TSS). Peaks with overlapping localization by at least 1 nucleotide in several samples were merged and further on referred to as one peak. […]

[3] = system: XIAP, cIAP2, Bcl-XL, Bcl-2, Bad, p53, cIAP1, STAT3; parameters: method as in 2 sources, ref 22 = [22]; PMID 17804712; doi:10.1158/0008-5472.CAN-07-1343; 22 Nakahara T. Kita A. Yamanaka K. Mori M. Amino N. Takeuchi M. Tominaga F. Hatakeyama S. Kinoyama I. Matsuhisa A. YM155, a novel small-molecule survivin suppressant, induces regression of established ||| ref 23 = [23]; PMID 18927289; doi:10.1158/1078-0432.CCR-08-0468; 23 Iwasa T. Okamoto I. Suzuki M. Nakahara T. Yamanaka K. Hatashita E. Yamada Y. Fukuoka M. Ono K. Nakagawa K. Radiosensitizing effect of YM155, a novel small-molecule survivin suppressant, in non-smal; details: cited from earlier work
survivin transcription = system: survivin transcription; parameters: method as in PMID 17804712; details: cited from earlier work

With COCCn1c2c([n+](Cc3cnccn3)c1C)C(=O)c1ccccc1C2=O [YM155, sepantronium bromide] the “caudal HOX-B gene expression (in words)” value ([1]; HOX-B8, -B9, and -B13, YM155, CD4+ cells) was “a change of the HOX-B genes, which was clearly seen in the caudal HOX-B8, -B9, and -B13 genes”, the “number of genes downregulated (of 157)” value ([1]; genes connected to changed H3K27me3 peaks, YM155-treated CD4+ cells) was 100 and the “number of protein-coding genes with significantly changed mRNA levels” value ([1]; genes connected to regulatory elements at changed H3K27me3 peaks, nominal p < 0.01, YM155-treated CD4+ cells) was 157. For the same compound, the “H3K27 acetylation after survivin inhibition (in words)” value ([2]; CD4+ T cells, YM155 10 ng/ml, 24 h) was “virtually unaffected”, the “proportion of H3K27me3 peaks with increased H3K27me3 deposition” value ([2]; CD4+ T cells, YM155 10 ng/ml, 24 h, ConA/LPS stimulated) was 85% and the “increase in tag counts, middle H3K27me3 peak (first)” value ([2]; HOX-B cluster, chromosome 17) was 51%. For the same compound, the “increase in tag counts, middle H3K27me3 peak (second)” value ([2]; HOX-B cluster, chromosome 17) was 69%, the “number of H3K27me3 peaks that increased the count by 30%” value ([2]; YM155-treated CD4+ cell cultures) was 7413 and the “effect on expression of XIAP, cIAP2, Bcl-XL, Bcl-2, Bad (in words)” value [3] was “does not change the expression”. The “effect on expression of p53, cIAP1, STAT3 (in words)” value [3] was “does not change the expression” and the “effect on survivin transcription (in words)” value (survivin transcription) was “specifically inhibits survivin transcription”.
